Laboratory results from patent US20220380347A1, “INHIBITORS OF CYSTEINE PROTEASES AND METHODS OF USE THEREOF” (Pardes Biosciences, Inc., priority 2020, published 2022).
Read-outs that look alike come from different tables or passages of the source.

Legend:
[1] = biological target: COVID-19 (nCoV-2019, SARS-CoV2) Mpro (Severe acute respiratory syndrome coronavirus 2, UniProt P0DTD1); assay: COVID-19 (nCoV-2019, SARS-CoV2) Mpro enzymatic assay; assay type: biochemical; settings: 25 nM Mpro, 25 μM substrate; read-out: COVID-19 Mpro IC50
HCov OC43 = assay: HCoV OC43 cytopathic effect (CPE) assay, CellTiter Glo; assay type: cell-based, human coronavirus (HCov) OC43
Procedure: Example 238: Evaluation of antiviral activity of compounds against human coronavirus (HCov) 229E and OC43 in the cytopathic effect (CPE) assays
Compounds were assayed using standard methods against multiple coronaviral strains, including HCoV 229E and OC43 strains. The antiviral activity of compounds was calculated based on the protection of the virus-induced CPE at each concentration normalized by the virus control.
Reference compound used was remdesivir; detection reagent: CellTiter Glo.) The CPE were measured by CellTiter Glo following the manufacturer's manual. The antiviral activity of compounds was calculated based on the protection of the virus-induced CPE at each concentration normalized by the virus control.
Cell viability was measured with CellTiter Glo.

229E Mpro = 229E Mpro (Human coronavirus 229E, UniProt P0C6X1); assay: 229E Mpro enzymatic assay (standard methods, SARS-CoV2 Mpro assay given as exemplary); assay type: biochemical, human coronavirus (HCov) 229E
Procedure: Compounds were assayed using standard methods to assess compound activity and IC50. As an exemplary for assessment of the SARS-COV2 Mpro, the C-His6-tagged Mpro (NC_045512) was cloned, expressed in E. coli and purified. The assay buffer contained 20 mM of Tris-HCl (pH 7.3), 100 mM of NaCl, 1 mM of EDTA, 5 mM of TCEP and 0.1% BSA. The final concentrations of the Mpro protein and substrate were 25 nM and 25 μM, respectively, in the Mpro enzymatic assay. The Km of the Mpro substrate for the protease was 13.5 μM.
The compounds were added to an assay plate. […] For no inhibition control (ZPE, zero percent effect), no compound was added.
IC50 values of compounds were calculated with the GraphPad Prism software using the nonlinear regression model of log(inhibitor) vs. response—Variable slope (four parameters). The inhibition activity was calculated using the formula below, IC50 values is calculated using the Inhibition % data.
Inhibition %=[(Sample-Average ZPE)/(Average HPE-Average ZPE)]*100%^#

[2] = read-out: OC43 IC50 (uM) MEDIAN, median
[3] = Betacoronavirus 1, OC43, read-out: OC43 IC50 (uM) MEDIAN, median

Chain of 229E Mpro (P0C6X1 2966-3267): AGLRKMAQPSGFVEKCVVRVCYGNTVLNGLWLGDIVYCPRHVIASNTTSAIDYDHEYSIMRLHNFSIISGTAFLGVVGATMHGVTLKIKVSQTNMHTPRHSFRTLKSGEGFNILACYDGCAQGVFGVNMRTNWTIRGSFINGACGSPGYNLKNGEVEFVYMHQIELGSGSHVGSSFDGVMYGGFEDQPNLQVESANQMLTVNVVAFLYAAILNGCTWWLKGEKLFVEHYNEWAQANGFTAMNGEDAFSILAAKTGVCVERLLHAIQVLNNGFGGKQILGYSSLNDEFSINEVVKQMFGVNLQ

CC(C)(C)c1ccc(N(C(=O)C2CCC(F)(F)CN2C#N)C(C(=O)NC2CCCCC2)c2cccnc2)cc1 (single isomer, unassigned) [885 Isomer 1, N-(4-(tert-butyl)phenyl)-1-cyano-N-(2-(cyclohexylamino)-2-oxo-1-(pyridin-3-yl)ethyl)-5,5-difluoropiperidine-2-carboxamide]
IC50 [1]: > 30 µM
IC50 (HCov OC43; [2]): > 30 µM
EC50 (229E Mpro; 229E Mpro EC50): 10 to 30 µM

CC(C)(C)c1ccc(N(C(=O)C2CCC(F)(F)CN2C#N)C(C(=O)NC2CCCCC2)c2cccnc2)cc1 (single isomer, unassigned) [885 Isomer 2, N-(4-(tert-butyl)phenyl)-1-cyano-N-(2-(cyclohexylamino)-2-oxo-1-(pyridin-3-yl)ethyl)-5,5-difluoropiperidine-2-carboxamide]
IC50 [1]: < 2 µM
IC50 (HCov OC43; [2]): 2 to 10 µM
EC50 (229E Mpro; 229E Mpro EC50): < 2 µM

CC1(O)CN(C(=O)C(c2cccnc2)N(C(=O)[C@H]2CCCN2C#N)c2ccc(C(C)(C)C)cc2)C1 (single isomer, unassigned) [955 Isomer 1]
IC50 [1]: 2 to 10 µM
IC50 (HCov OC43; [2]): 2 to 10 µM
EC50 (229E Mpro; 229E Mpro EC50): 2 to 10 µM

CC1(O)CN(C(=O)C(c2cccnc2)N(C(=O)[C@H]2CCCN2C#N)c2ccc(C(C)(C)C)cc2)C1 (single isomer, unassigned) [955 Isomer 2]
IC50 [1]: 10 to 30 µM
IC50 (HCov OC43; [2]): 10 to 30 µM
EC50 (229E Mpro; read-out: 229E Mpro EC50): 2 to 10 µM

CC1(C)CN(C#N)[C@@H](C(=O)N(c2ccc(S(F)(F)(F)(F)F)cc2)C(C(=O)NC2CCC(F)(F)CC2)c2cncc(F)c2)CO1 (single isomer, unassigned) [1086b Isomer 1]
IC50 [1]: < 2 µM
IC50 (HCov OC43; [3]): < 2 µM
EC50 (229E Mpro; 229E Mpro EC50): < 2 µM

CC1(C)CN(C#N)[C@@H](C(=O)N(c2ccc(S(F)(F)(F)(F)F)cc2)C(C(=O)NC2CCC(F)(F)CC2)c2cncc(F)c2)CO1 (single isomer, unassigned) [1086b Isomer 2]
IC50 [1]: 2 to 10 µM
IC50 (HCov OC43; [2]): 2 to 10 µM
EC50 (229E Mpro; read-out: 229E Mpro EC50): < 2 µM

N#CN1CC(F)(F)C[C@@H]1C(=O)N(c1ccc(S(F)(F)(F)(F)F)cc1)C(C(=O)NC1CCC(F)(F)CC1)c1cccnc1 (single isomer, unassigned) [1087 Isomer 1]
IC50 [1]: < 2 µM
IC50 (HCov OC43; [2]): < 2 µM
EC50 (229E Mpro; 229E Mpro EC50): < 2 µM

N#CN1CC(F)(F)C[C@@H]1C(=O)N(c1ccc(S(F)(F)(F)(F)F)cc1)C(C(=O)NC1CCC(F)(F)CC1)c1cccnc1 (single isomer, unassigned) [1087 Isomer 2]
IC50 [1]: 2 to 10 µM
IC50 (HCov OC43; [2]): > 30 µM
EC50 (229E Mpro; read-out: 229E Mpro EC50): < 2 µM

CC1(C)CCN(C#N)[C@H]1C(=O)N(c1ccc(S(F)(F)(F)(F)F)cc1)C(C(=O)NC1CCC(F)(F)CC1)c1cncc(F)c1 (single isomer, unassigned) [1094 Isomer 1]
IC50 [1]: < 2 µM
IC50 (HCov OC43; [2]): < 2 µM
EC50 (229E Mpro; 229E Mpro EC50): < 2 µM

CC1(C)CCN(C#N)[C@H]1C(=O)N(c1ccc(S(F)(F)(F)(F)F)cc1)C(C(=O)NC1CCC(F)(F)CC1)c1cncc(F)c1 (single isomer, unassigned) [1094 Isomer 2]
IC50 [1]: 10 to 30 µM
IC50 (HCov OC43; [2]): 10 to 30 µM
EC50 (229E Mpro; 229E Mpro EC50): 2 to 10 µM

N#CN1C[C@@H]2C[C@@H]2[C@@H]1C(=O)N(c1ccc(S(F)(F)(F)(F)F)cc1)C(C(=O)NC1CCC(F)(F)CC1)c1cncc(F)c1 (single isomer, unassigned) [1096 Isomer 1]
IC50 [1]: 2 to 10 µM
IC50 (HCov OC43; [3]): 2 to 10 µM
EC50 (229E Mpro; 229E Mpro EC50): < 2 µM

N#CN1C[C@@H]2C[C@@H]2[C@@H]1C(=O)N(c1ccc(S(F)(F)(F)(F)F)cc1)C(C(=O)NC1CCC(F)(F)CC1)c1cncc(F)c1 (single isomer, unassigned) [1096 Isomer 2]
IC50 [1]: < 2 µM
IC50 (HCov OC43; [2]): < 2 µM
EC50 (229E Mpro; read-out: 229E Mpro EC50): < 2 µM

N#CN1C[C@@H]2CC[C@@H]2[C@@H]1C(=O)N(c1ccc(S(F)(F)(F)(F)F)cc1)C(C(=O)NC1CCC(F)(F)CC1)c1cncc(F)c1 (single isomer, unassigned) [1097 Isomer 1]
IC50 [1]: < 2 µM
IC50 (HCov OC43; [3]): < 2 µM
EC50 (229E Mpro; 229E Mpro EC50): < 2 µM

N#CN1C[C@@H]2CC[C@@H]2[C@@H]1C(=O)N(c1ccc(S(F)(F)(F)(F)F)cc1)C(C(=O)NC1CCC(F)(F)CC1)c1cncc(F)c1 (single isomer, unassigned) [1097 Isomer 2]
IC50 [1]: 10 to 30 µM
IC50 (HCov OC43; [2]): 2 to 10 µM
EC50 (229E Mpro; 229E Mpro EC50): 2 to 10 µM

N#C[C@H]1C[C@H](C(=O)N(c2ccc(S(F)(F)(F)(F)F)cc2)C(C(=O)NC2CCC(F)(F)CC2)c2cncc(F)c2)N(C#N)C1 (single isomer, unassigned) [1100 Isomer 1]
IC50 [1]: < 2 µM
IC50 (HCov OC43; [3]): < 2 µM
EC50 (229E Mpro; 229E Mpro EC50): < 2 µM

N#C[C@H]1C[C@H](C(=O)N(c2ccc(S(F)(F)(F)(F)F)cc2)C(C(=O)NC2CCC(F)(F)CC2)c2cncc(F)c2)N(C#N)C1 (single isomer, unassigned) [1100 Isomer 2]
IC50 [1]: < 2 µM
IC50 (HCov OC43; [2]): < 2 µM
EC50 (229E Mpro; read-out: 229E Mpro EC50): < 2 µM

CS(=O)(=O)[C@H]1C[C@H](C(=O)N(c2ccc(S(F)(F)(F)(F)F)cc2)C(C(=O)NC2CCC(F)(F)CC2)c2cncc(F)c2)N(C#N)C1 (single isomer, unassigned) [1105 Isomer 1]
IC50 [1]: < 2 µM
IC50 (HCov OC43; [3]): < 2 µM
EC50 (229E Mpro; 229E Mpro EC50): < 2 µM

CS(=O)(=O)[C@H]1C[C@H](C(=O)N(c2ccc(S(F)(F)(F)(F)F)cc2)C(C(=O)NC2CCC(F)(F)CC2)c2cncc(F)c2)N(C#N)C1 (single isomer, unassigned) [1105 Isomer 2]
IC50 [1]: < 2 µM
IC50 (HCov OC43; [2]): < 2 µM
EC50 (229E Mpro; read-out: 229E Mpro EC50): < 2 µM

CO[C@@H]1C[C@H](C(=O)N(c2ccc(S(F)(F)(F)(F)F)cc2)C(C(=O)N(C)CC(=O)NC2CC2)c2cccnc2)N(C#N)C1 (single isomer, unassigned) [1122 Isomer 1]
IC50 [1]: < 2 µM
IC50 (HCov OC43; [2]): < 2 µM
EC50 (229E Mpro; read-out: 229E Mpro EC50): < 2 µM

CO[C@@H]1C[C@H](C(=O)N(c2ccc(S(F)(F)(F)(F)F)cc2)C(C(=O)N(C)CC(=O)NC2CC2)c2cccnc2)N(C#N)C1 (single isomer, unassigned) [1122 Isomer 2]
IC50 [1]: 10 to 30 µM
IC50 (HCov OC43; [2]): 2 to 10 µM
EC50 (229E Mpro; read-out: 229E Mpro EC50): < 2 µM

CC1(C)CN(C#N)[C@@H](C(=O)N(c2ccc(C(C)(C)C)cc2)C(C(=O)NC2CCOCC2)c2cccnc2)CO1 (single isomer, unassigned) [1141 Isomer 1]
IC50 [1]: 2 to 10 µM
IC50 (HCov OC43; [2]): 2 to 10 µM
EC50 (229E Mpro; 229E Mpro EC50): 10 to 30 µM

CC1(C)CN(C#N)[C@@H](C(=O)N(c2ccc(C(C)(C)C)cc2)C(C(=O)NC2CCOCC2)c2cccnc2)CO1 (single isomer, unassigned) [1141 Isomer 2]
IC50 [1]: < 2 µM
IC50 (HCov OC43; [2]): 2 to 10 µM
EC50 (229E Mpro; 229E Mpro EC50): < 2 µM

CC1(C)CN(C#N)[C@@H](C(=O)N(c2ccc(C(C)(C)C)cc2)C(C(=O)NC2CCOCC2)c2cccnc2)CO1 (single isomer, unassigned) [1141 Isomer 3]
IC50 [1]: > 30 µM
IC50 (HCov OC43; [2]): > 30 µM
EC50 (229E Mpro; 229E Mpro EC50): 10 to 30 µM

CC1(C)CN(C#N)[C@@H](C(=O)N(c2ccc(C(C)(C)C)cc2)C(C(=O)NC2CCOCC2)c2cccnc2)CO1 (single isomer, unassigned) [1141 Isomer 4]
IC50 [1]: 10 to 30 µM
IC50 (HCov OC43; [2]): 10 to 30 µM
EC50 (229E Mpro; 229E Mpro EC50): < 2 µM

CC(C)(C)c1ccc(N(C(=O)[C@H]2C[C@@](C)(O)CN2C#N)C(C(=O)NC2CCOCC2)c2cccnc2)cc1 (single isomer, unassigned) [1142 Isomer 1]
IC50 [1]: < 2 µM
IC50 (HCov OC43; [2]): < 2 µM
EC50 (229E Mpro; 229E Mpro EC50): < 2 µM

CC(C)(C)c1ccc(N(C(=O)[C@H]2C[C@@](C)(O)CN2C#N)C(C(=O)NC2CCOCC2)c2cccnc2)cc1 (single isomer, unassigned) [1142 Isomer 2]
IC50 [1]: 2 to 10 µM
IC50 (HCov OC43; [2]): 10 to 30 µM
EC50 (229E Mpro; read-out: 229E Mpro EC50): < 2 µM

CO[C@@H]1C[C@H](C(=O)N(c2ccc(S(F)(F)(F)(F)F)cc2)C(C(=O)N2CCN(C(=O)OC(C)(C)C)C2)c2cccnc2)N(C#N)C1 (single isomer, unassigned) [1148d Isomer 1]
IC50 [1]: 2 to 10 µM
IC50 (HCov OC43; [3]): < 2 µM
EC50 (229E Mpro; 229E Mpro EC50): < 2 µM

C[C@@]1(O)C[C@H](C(=O)N(c2ccc(S(F)(F)(F)(F)F)cc2)C(C(=O)NC2CCC(F)(F)CC2)c2ccc(F)nc2)N(C#N)C1 (single isomer, unassigned) [1157 Isomer 1]
IC50 [1]: < 2 µM
IC50 (HCov OC43; [3]): < 2 µM
EC50 (229E Mpro; 229E Mpro EC50): < 2 µM

C[C@@]1(O)C[C@H](C(=O)N(c2ccc(S(F)(F)(F)(F)F)cc2)C(C(=O)NC2CCC(F)(F)CC2)c2ccc(F)nc2)N(C#N)C1 (single isomer, unassigned) [1157 Isomer 2]
IC50 [1]: 2 to 10 µM
IC50 (HCov OC43; [2]): 2 to 10 µM
EC50 (229E Mpro; read-out: 229E Mpro EC50): < 2 µM

C[C@@]1(O)C[C@H](C(=O)N(c2ccc(S(F)(F)(F)(F)F)cc2)C(C(=O)NC2CCC(F)(F)CC2)c2cccnc2F)N(C#N)C1 (single isomer, unassigned) [1158 Isomer 1]
IC50 [1]: < 2 µM
IC50 (HCov OC43; [3]): < 2 µM
EC50 (229E Mpro; 229E Mpro EC50): < 2 µM
